Test results reported in PubChem BioAssay (NCI).
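Interpolation was linear, between the two tested concentrations surrounding the appropriate level; five concentrations were tested over 48 hours in 96-well plates. At the TGI there is no net growth.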

What was measured:
Experiment in all cases: NCI-60 cell line screen, 48 h
786-0 renal = test system: 786-0 renal
A498 renal = test system: A498 renal
A549 NSCLC = test system: A549 NSCLC
ACHN renal = test system: ACHN renal
BT-549 breast = test system: BT-549 breast
CAKI-1 renal = test system: CAKI-1 renal
CCRF-CEM leukemia = test system: CCRF-CEM leukemia
COLO 205 colon = test system: COLO 205 colon
DU-145 prostate = test system: DU-145 prostate
HCC-2998 colon = test system: HCC-2998 colon
HCT-116 colon = test system: HCT-116 colon
HCT-15 colon = test system: HCT-15 colon
HL-60(TB) leukemia = test system: HL-60(TB) leukemia
HOP-62 NSCLC = test system: HOP-62 NSCLC
HOP-92 NSCLC = test system: HOP-92 NSCLC
HS 578T breast = test system: HS 578T breast
HT29 colon = test system: HT29 colon
IGROV1 ovarian = test system: IGROV1 ovarian
K-562 leukemia = test system: K-562 leukemia
KM12 colon = test system: KM12 colon
LOX IMVI melanoma = test system: LOX IMVI melanoma
M14 melanoma = test system: M14 melanoma
MALME-3M melanoma = test system: MALME-3M melanoma
MCF7 breast = test system: MCF7 breast
MDA-MB-231 breast = test system: MDA-MB-231 breast
MDA-MB-435 = test system: MDA-MB-435
MDA-N = test system: MDA-N
MOLT-4 leukemia = test system: MOLT-4 leukemia
NCI-H226 lung = test system: NCI-H226 lung
NCI-H23 lung = test system: NCI-H23 lung
NCI-H460 lung = test system: NCI-H460 lung
NCI-H522 lung = test system: NCI-H522 lung
NCI/ADR-RES ovarian = test system: NCI/ADR-RES ovarian
OVCAR-3 ovarian = test system: OVCAR-3 ovarian
OVCAR-4 ovarian = test system: OVCAR-4 ovarian
OVCAR-5 ovarian = test system: OVCAR-5 ovarian
OVCAR-8 ovarian = test system: OVCAR-8 ovarian
PC-3 prostate = test system: PC-3 prostate
RPMI-8226 leukemia = test system: RPMI-8226 leukemia
RXF 393 renal = test system: RXF 393 renal
SF-268 CNS = test system: SF-268 CNS
SF-295 CNS = test system: SF-295 CNS
SF-539 CNS = test system: SF-539 CNS
SK-MEL-2 melanoma = test system: SK-MEL-2 melanoma
SK-MEL-28 melanoma = test system: SK-MEL-28 melanoma
SK-MEL-5 melanoma = test system: SK-MEL-5 melanoma
SN12C renal = test system: SN12C renal
SNB-19 CNS = test system: SNB-19 CNS
SNB-75 CNS = test system: SNB-75 CNS
SR leukemia = test system: SR leukemia
SW-620 colon = test system: SW-620 colon
T-47D breast = test system: T-47D breast
TK-10 renal = test system: TK-10 renal
U251 CNS = test system: U251 CNS
UACC-257 melanoma = test system: UACC-257 melanoma
UACC-62 melanoma = test system: UACC-62 melanoma
UO-31 renal = test system: UO-31 renal

SMILES: N#CC1=C(S)N(C2OC(CO)C(O)C(O)C2O)C(c2ccccc2)=CC1c1cccs1 (configuration not stated)
- TGI (786-0 renal): 35.7 µM
- TGI (A498 renal): > 10 µM
- TGI (A549 NSCLC): 45.6 µM
- TGI (ACHN renal): 40.8 µM
- TGI (BT-549 breast): 30.4 µM
- TGI (CAKI-1 renal): 50.4 µM
- TGI (CCRF-CEM leukemia): > 100 µM
- TGI (COLO 205 colon): 38.6 µM
- TGI (DU-145 prostate): > 10 µM
- TGI (HCC-2998 colon): 44.8 µM
- TGI (HCT-116 colon): 75.7 µM
- TGI (HCT-15 colon): > 100 µM
- TGI (HL-60(TB) leukemia): > 100 µM
- TGI (HOP-62 NSCLC): 57 µM
- TGI (HOP-92 NSCLC): 68.8 µM
- TGI (HS 578T breast): 67 µM
- TGI (HT29 colon): 37.5 µM
- TGI (IGROV1 ovarian): 45.7 µM
- TGI (K-562 leukemia): > 100 µM
- TGI (KM12 colon): 34.7 µM
- TGI (LOX IMVI melanoma): 36.9 µM
- TGI (M14 melanoma): > 100 µM
- TGI (MALME-3M melanoma): 38.7 µM
- TGI (MCF7 breast): 54.9 µM
- TGI (MDA-MB-231 breast): 63.5 µM
- TGI (MDA-MB-435): 44.1 µM
- TGI (MDA-N): 30.9 µM
- TGI (MOLT-4 leukemia): > 100 µM
- TGI (NCI-H226 lung): 41.3 µM
- TGI (NCI-H23 lung): > 100 µM
- TGI (NCI-H460 lung): 32.9 µM
- TGI (NCI-H522 lung): 47.5 µM
- TGI (NCI/ADR-RES ovarian): > 100 µM
- TGI (OVCAR-3 ovarian): 80.2 µM
- TGI (OVCAR-4 ovarian): > 100 µM
- TGI (OVCAR-5 ovarian): > 100 µM
- TGI (OVCAR-8 ovarian): 65.9 µM
- TGI (PC-3 prostate): 30.8 µM
- TGI (RPMI-8226 leukemia): > 100 µM
- TGI (RXF 393 renal): 40 µM
- TGI (SF-268 CNS): 63.8 µM
- TGI (SF-295 CNS): 34.8 µM
- TGI (SF-539 CNS): 38.7 µM
- TGI (SK-MEL-2 melanoma): 50.2 µM
- TGI (SK-MEL-28 melanoma): 41.4 µM
- TGI (SK-MEL-5 melanoma): 31 µM
- TGI (SN12C renal): 32.4 µM
- TGI (SNB-19 CNS): > 10 µM
- TGI (SNB-75 CNS): 51.8 µM
- TGI (SR leukemia): > 100 µM
- TGI (SW-620 colon): 65 µM
- TGI (T-47D breast): 65.7 µM
- TGI (TK-10 renal): 48.2 µM
- TGI (U251 CNS): 51.4 µM
- TGI (UACC-257 melanoma): 40.8 µM
- TGI (UACC-62 melanoma): 48.3 µM
- TGI (UO-31 renal): > 100 µM
